Format in all cases: cell-based
The test system of series [1] is IL‐4‐stimulated primary human macrophages. The series is described as follows: In vitro photodynamic therapy, MTT viability, IL-4-stimulated macrophages. As to conditions: 30 µM 1 h 37 °C, washed. From the text:
(§1) We next coupled MACTIDE to the photosensitizer Verteporfin, intending to deplete CD206^+ TAM using photodynamic therapy (PDT). To this end, carboxy‐Verteporfin was coupled to the N‐terminus of MACTIDE, a construct referred to as “MACTIDE‐V” (Figure 5A). We performed in vitro photodynamic therapy with MACTIDE‐V on primary human macrophages stimulated with IL‐4 or LPS + IFNγ.
(§2) Figure 5 In vitro and in vivo photodynamic therapy with MACTIDE‐V. A) Structure of MACTIDE‐V. B) MACTIDE‐V, CtrlPep‐V, and DOX were incubated with primary human macrophages (obtained from monocytes derived from human blood buffy coat) at 30 µM for 1 h at 37 °C, followed by 2 washes with media. Then, the groups shown in pink were irradiated with 10 J cm^−2 (irradiance: 170 mW cm^−2, spot diameter: 0.5 cm). […] Peptide‐V conjugates were administered i.p. at a dose of 30 nmol (1 mg Kg^−1 in Verteporfin). For the irradiated groups, 4 h after administration of conjugates or PBS, the mice were irradiated with 100 J cm^−2; shown is primary tumor volume progression during treatment. Gray arrows indicate injection days. D) Bodyweight during the treatment as % of the initial one. E) Representative mIHC images of PBS, CtrlPep‐V, and MACTIDE‐V‐treated tumors, 20X magnification, scale bar = 100 µm, white triangles point to Foxp3^+ cells. F) CD8^+ T cells, CD4^+ T cells, and Treg density, n = 6 mice/group, with every dot representing the mean cell density of each tumor obtained from 20 images. G) CD8^+ T cells density in CK8^+‐dense tumor regions. n = 5 mice/group, with every dot representing the mean cell density of each tumor obtained from 20 images. Median ± interquartile range. One‐way ANOVA with multiple comparisons, ^* p ≤ 0.05, ^** p ≤ 0.01.
(§3) Human peripheral mononuclear cells (PBMCs) were purified from human blood buffy coats following the protocol described previously.^[ [24] ^] […] Crystal formation was monitored every 20–30 min to not oversaturate the absorbance values.

The subject of series [2] is mouse bone marrow‐derived macrophages (BMDM). As to the kind of experiment: Phagocytosis of live 4T1-GFP cancer cells by BMDM. As to conditions: Balb/c BMDM, 10 µM 4 h, washed, 48 h, then 2 h with 4T1-GFP cells, n = 3. How it is done:
We then analyzed if MACTIDE‐V affected the phagocytic activity of BMDM in vitro.
For the live 4T1‐GFP phagocytosis assay, 4T1‐GFP cells were cultured in RPMI1640 supplemented with 10% (v/v) FBS and 1% penicillin/streptomycin at 37 °C, 5% CO2. BMDM were seeded on Ibidi plates (Ibidi, cat# 80821) and at day 5 were treated with MACTIDE and conjugates as previously described (10 µM during 4h, followed by washing with media). Then, 48h later, the BMDM were incubated for 2 h with 2×10^5 4T1‐GFP cells (the area of the wells is 1 cm^2). Then, the supernatant was removed, and the wells were washed with media and then with PBS. Then, the cells were fixed with ice‐cold acetone for 10 min. Fixed cells were then washed with PBS, permeabilized with PBS‐0.2% Triton for 10 min and washed with PBS‐T (PBS+0.05% Tween‐20 (v/v)), and then incubated with blocking buffer (5% BSA (w/v), 5% FBS (v/v) in PBS‐T) for 1 h at room temperature. […] The mean GFP signal intensity was quantified from the images using ImageJ and normalized to the amount of DAPI^+ nuclei.
Figure S4. […] Scale bars= 50µm.The mean GFP signal intensity was quantified from the images using ImageJ and normalized to the amount of DAPI^+ nuclei (right panel). […]

Series [3] deals with LPS + IFNγ‐stimulated primary human macrophages. As to the kind of experiment: In vitro photodynamic therapy, MTT viability, LPS + IFNγ-stimulated macrophages. Conditions: 30 µM 1 h 37 °C, washed.
Source text: as §1, §2, §3

Where [4] appears, read: irradiated 10 J cm^−2 (689 nm), 48 h, n = 6.
[5] abbreviates: with or without 10 J cm^−2, 48 h.

For “Vert‐Ahx‐G(CTKSIPPIC)SPGAK‐OH (disulfide) [MACTIDE‐V]”, the “macrophages depleted, irradiated” value in series [1] (setting [4]) is 80%; in series [3] (setting [4]) it was 40%. The “toxicity, non‐irradiated” value in series [1] (no irradiation, 48 h, n = 6) is recorded as “no toxicity”; in series [3] (no irradiation, 48 h, n = 6), “no toxicity”. Also, in series [2], the “phagocytosis of live 4T1 cancer cells labeled with GFP” value is recorded as “cancer cell phagocytosis only in the MACTIDE‐V treated BMDM”.
“Vert‐Ahx‐AKPCGS‐OH [CtrlPep‐V, reference compound]”: the “toxicity with and without irradiation” value in series [1] (setting [5]) and in series [3] (setting [5]) was “no toxicity” in each case. Besides, in series [2], the “phagocytosis of live 4T1 cancer cells labeled with GFP” value was “negligible phagocytosis”.

Values taken from paper PMC11904948, “Peptide‐Drug Conjugate for Therapeutic Reprogramming of Tumor‐Associated Macrophages in Breast Cancer” (Advanced Science, 2025).
